# Experimental data published in patent US7449447B2, “Peptidomimetic NS3-serine protease inhibitors of hepatitis C virus” (priority 2003, dated 2008).
# Target: T1, HCV NS3/NS4a serine protease (Hepatitis C virus genotype 1b, UniProt P26663)
# T1 construct: amino terminus of the NS3 protease domain (amino acids 3-181) with a tetrapeptide linker; made in house; host or cells: E. coli
# Test: Spectrophotometric assay for HCV protease inhibitory activity (chromogenic ester substrates)
# Type: biochemical, hepatitis C virus (strain 1b)
# Details: Ki Rating, Table 2; single chain NS4A21-32-GSGS-NS3 3-181 protease, 30° C., pH 6.5
# Procedure: Spectrophotometric Assay: Spectrophotometric assays for the HCV serine protease were performed on the inventive compounds by following the procedure described by R. Zhang et al., Analytical Biochemistry, 270 (1999) 268-275, the disclosure of which is incorporated herein by reference. The assay based on the proteolysis of chromogenic ester substrates is suitable for the continuous monitoring of HCV NS3 protease activity.
# HCV NS3 protease (strain 1b) and its NS4A cofactor were constructed as a recombinant single chain protein. The NS4A cofactor domain (amino acid residues 21-32) was fused in frame to the amino terminus of the NS3 protease domain (amino acids 3-181) with a tetrapeptide linker. This NS4A 21-32-GSGS-NS33-181 construct was then expressed in E. coli and purified to >90% homogeneity. Kinetic parameters were determined and found to be the same as that of the full length NS31-631/NS4A1-54 protein complex produced in the baculovirus system (D. L. Sali et al, Biochemistry, 37 (1998) 3392-340). The details of the cloning, expression, purification and kinetic analysis of the of the single chain recombinant protease have been previously described (S. S. Taremi, et al. Protein Science. 7 (1998) 2143-2149.
# Protein concentrations were determined by the Biorad dye method using recombinant HCV protease standards previously quantified by amino acid analysis. Prior to assay initiation, the enzyme storage buffer (50 mM sodium phosphate pH 8.0, 300 mM NaCl, 10% glycerol, 0.05% lauryl maltoside and 10 mM DTT) was exchanged for the assay buffer (25 mM MOPS pH 6.5, 300 mM NaCl, 10% glycerol, 0.05% lauryl maltoside, 5 μM EDTA and 5 μM DTT) utilizing a Biorad Bio-Spin P-6 prepacked column.
# Protease Assay: HCV protease assays were performed at 30° C. using a 200 μl reaction mix in a 96-well microtiter plate. Assay buffer conditions (25 mM MOPS pH 6.5, 300 mM NaCl, 10% glycerol, 0.05% lauryl maltoside, 5 μM EDTA and 5 μM DTT) were optimized for the NS3/NS4A heterodimer (D. L. Sali et al, ibid.)). Typically, 100 μl mixtures of buffer, substrate and inhibitor were placed in wells and allowed to preincubate at 30° C. for approximately 3 minutes. One hundred μls of pre-warmed protease (30° C.) in assay buffer, was then used to initiate the reaction to produce a final concentration of 1.3 nM HCV). The Substrate cleavage by the protease was monitored over 60 minutes by measuring the release of the phenylazophenol (PAP) product at an absorbance of 370 nm with a continuous read every 30 seconds using a SpectraMax Plus microtiter plate reader (Molecular Devices, Sunnyvale, Calif.). Background hydrolysis of the substrate was subtracted. Inhibitors were tested over a range of concentrations (final DMSO concentration 4%)
# Evaluation of Inhibitors The inhibition constants (Ki) for the competitive inhibitors were determined experimentally at fixed concentrations of enzyme and substrate by plotting vo/vi vs. inhibitor concentration ([I]o) according to the rearranged Michaelis-Menten equation for competitive inhibition kinetics: vo/vi=1+[I]o/(Ki(1+[S]o/Km)), where vo is the uninhibited initial velocity, vi is the initial velocity in the presence of inhibitor at any given inhibitor concentration ([I]o) and [S]o is the substrate concentration used. The resulting data were fitted using linear regression and the resulting slope, 1/(Ki(1+[S]o/Km), was used to calculate the Ki value.
# T1 sequence (P26663 1013-1207, looked up, natural form): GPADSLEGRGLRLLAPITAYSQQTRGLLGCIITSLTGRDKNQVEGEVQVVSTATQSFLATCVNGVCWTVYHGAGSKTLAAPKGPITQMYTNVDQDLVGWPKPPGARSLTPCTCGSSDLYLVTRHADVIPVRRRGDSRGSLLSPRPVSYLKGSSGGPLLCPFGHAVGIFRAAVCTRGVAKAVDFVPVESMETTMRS
row,SMILES,Ki
1,CC(C)[C@H](NC(=O)N[C@H](C(=O)N1C[C@H]2[C@@H]([C@H]1C(=O)N[C@@H](CC(F)F)C(=O)NCCc1ccc(C(N)=O)cc1)C2(C)C)C(C)(C)C)C(=O)O [Example 124],100 to 500 nM
2,CC(C)[C@H](NC(=O)N[C@H](C(=O)N1C[C@H]2[C@@H]([C@H]1C(=O)N[C@@H](CC(F)F)C(=O)NCCc1ccc(C(=O)O)cc1)C2(C)C)C(C)(C)C)C(=O)OC(C)(C)C [Example 125],100 to 500 nM
3,CC(C)[C@H](NC(=O)N[C@H](C(=O)N1C[C@H]2[C@@H]([C@H]1C(=O)N[C@@H](CC(F)F)C(=O)NCCc1ccc(C(N)=O)cc1)C2(C)C)C(C)(C)C)C(=O)OC(C)(C)C [Example 126],100 to 500 nM
4,CC(C)(C)OC(=O)[C@@H](NC(=O)N[C@H](C(=O)N1C[C@H]2[C@@H]([C@H]1C(=O)N[C@@H](CC(F)F)C(=O)NCCc1ccc(C(=O)O)cc1)C2(C)C)C(C)(C)C)C(C)(C)C [Example 127],100 to 500 nM
5,CN(C[C@@H](NC(=O)N[C@H](C(=O)N1C[C@H]2[C@@H]([C@H]1C(=O)NC(CC(F)F)C(=O)NCCc1ccc(C(N)=O)cc1)C2(C)C)C(C)(C)C)C(C)(C)C)S(C)(=O)=O (stereo partly shown) [Example 128],100 to 500 nM
6,CC(C)[C@H](NC(=O)N[C@H](C(=O)N1C[C@H]2[C@@H]([C@H]1C(=O)NC(CC(F)F)C(=O)NCCc1ccc(C(=O)O)cc1)C2(C)C)C(C)(C)C)C(=O)OC(C)(C)C (stereo partly shown) [Example 129],100 to 500 nM
7,COC(=O)c1ccc(CCNC(=O)[C@H](CC(F)F)NC(=O)[C@@H]2[C@@H]3[C@H](CN2C(=O)[C@@H](NC(=O)N[C@H](CNS(=O)(=O)c2ccccc2)C(C)C)C(C)(C)C)C3(C)C)cc1 [Example 130],100 to 500 nM
8,CC(C)[C@H](NC(=O)N[C@H](C(=O)N1C[C@H]2[C@@H]([C@H]1C(=O)N[C@@H](CC(F)F)C(=O)NCCc1ccc(C(=O)N(C)C)cc1)C2(C)C)C(C)(C)C)C(=O)O [Example 131],100 to 500 nM
9,CC(C)[C@H](NC(=O)N[C@H](C(=O)N1C[C@H]2[C@@H]([C@H]1C(=O)N[C@@H](CC(F)F)C(=O)NCCc1ccc(C(=O)O)cc1)C2(C)C)C(C)(C)C)C(=O)c1ccccc1 [Example 132],100 to 500 nM
10,COC(=O)c1ccc(CCNC(=O)[C@H](CC(F)F)NC(=O)[C@@H]2[C@@H]3[C@H](CN2C(=O)[C@@H](NC(=O)N[C@H](C(=O)OC(C)(C)C)C(C)C)C(C)(C)C)C3(C)C)cc1 [Example 133],100 to 500 nM
11,COC(=O)c1ccc(CCNC(=O)[C@H](CC(F)F)NC(=O)[C@@H]2[C@@H]3[C@H](CN2C(=O)[C@@H](NC(=O)N[C@H](C(=O)c2ccccc2)C(C)C)C(C)(C)C)C3(C)C)cc1 [Example 134],100 to 500 nM
12,CC(C)(C)[C@H](NC(=O)NC1(CS(C)(=O)=O)CCCCC1)C(=O)N1C[C@H]2[C@@H](C1C(=O)NC(CC(F)F)C(=O)NCCc1ccc(C(N)=O)cc1)C2(C)C (stereo partly shown) [Example 135],100 to 500 nM
13,CC(C)[C@H](NC(=O)N[C@H](C(=O)N1C[C@H]2[C@@H]([C@H]1C(=O)NC(CC(F)F)C(=O)NCCc1ccccc1)C2(C)C)C(C)(C)C)C(=O)O (stereo partly shown) [Example 136],100 to 500 nM
14,COC(=O)c1ccc(CCNC(=O)C(CC(F)F)NC(=O)[C@@H]2[C@@H]3[C@H](CN2C(=O)[C@@H](NC(=O)N[C@H](C(=O)OC(C)(C)C)C(C)C)C(C)(C)C)C3(C)C)cc1 (stereo partly shown) [Example 138],100 to 500 nM

# Same assay, conditions: Ki, Table 1; single chain NS4A21-32-GSGS-NS3 3-181 protease, 30° C., pH 6.5
row,SMILES,Ki
1,COC(=O)c1ccc(CCNC(=O)[C@H](CC(F)F)NC(=O)[C@@H]2C3C(CN2C(=O)[C@@H](NC(=O)N[C@H](CN(C)S(C)(=O)=O)C(C)(C)C)C2CCCCC2)C3(C)C)cc1 (stereo partly shown) [Example 101],11 nM
2,CC(C)(C)[C@H](NC(=O)N[C@H](CN1CCCS1(=O)=O)C(C)(C)C)C(=O)N1C[C@H]2[C@@H](C1C(=O)NC(CC(F)F)C(=O)NCCc1ccc(C(=O)O)cc1Cl)C2(C)C (stereo partly shown) [Example 102],21 nM
3,COC(=O)c1ccc(CCNC(=O)[C@H](CC(F)F)NC(=O)[C@@H]2[C@@H]3[C@H](CN2C(=O)[C@@H](NC(=O)N[C@H](CN(C)S(C)(=O)=O)C(C)(C)C)C(C)(C)C)C3(C)C)cc1 [Example 103],22 nM
4,CN(C[C@@H](NC(=O)N[C@H](C(=O)N1C[C@H]2[C@@H](C1C(=O)NC(CC(F)F)C(=O)NCCc1ccc(C(=O)O)cc1)C2(C)C)C(C)(C)C)C(C)(C)C)S(C)(=O)=O (stereo partly shown) [Example 104],24 nM
5,COC(=O)c1ccc(CCNC(=O)[C@H](CC(F)F)NC(=O)[C@@H]2[C@@H]3[C@H](CN2C(=O)[C@@H](NC(=O)N[C@H](CN(C)S(C)(=O)=O)C(C)(C)C)C(C)(C)C)C3(C)C)c(Cl)c1 [Example 105],24 nM
6,CN(C[C@@H](NC(=O)N[C@H](C(=O)N1C[C@H]2[C@@H](C1C(=O)N[C@@H](CC(F)F)C(=O)NCCc1ccc(C(N)=O)cc1)C2(C)C)C(C)(C)C)C(C)(C)C)S(C)(=O)=O (stereo partly shown) [Example 106],27 nM
7,CC(C)(C)[C@H](NC(=O)NC1(CS(C)(=O)=O)CCCCC1)C(=O)N1C[C@H]2[C@@H](C1C(=O)N[C@@H](CC(F)F)C(=O)NCCc1ccc(C(=O)O)cc1)C2(C)C (stereo partly shown) [Example 107],29 nM
8,COC(=O)c1ccc(CCNC(=O)[C@H](CC(F)F)NC(=O)[C@@H]2[C@@H]3[C@H](CN2C(=O)[C@@H](NC(=O)N[C@H](CN2CCCS2(=O)=O)C(C)(C)C)C(C)(C)C)C3(C)C)c(Cl)c1 [Example 108],30 nM
9,CC(C)(C)[C@H](NC(=O)NC1(CS(C)(=O)=O)CCCCC1)C(=O)N1C[C@H]2[C@@H](C1C(=O)NC(CC(F)F)C(=O)NCCc1ccc(C(N)=O)cc1)C2(C)C (stereo partly shown) [Example 109],38 nM
10,COC(=O)c1ccc(CCNC(=O)[C@H](CC(F)F)NC(=O)[C@@H]2[C@@H]3[C@H](CN2C(=O)[C@@H](NC(=O)NC2(CS(C)(=O)=O)CCCCC2)C(C)(C)C)C3(C)C)cc1 [Example 110],40 nM
11,CC(C)(C)[C@H](NC(=O)N[C@H](CN1CCCS1(=O)=O)C(C)(C)C)C(=O)N1C[C@H]2[C@@H](C1C(=O)NC(CC(F)F)C(=O)NCCc1ccc(C(N)=O)cc1Cl)C2(C)C (stereo partly shown) [Example 111],42 nM
12,CC(C)[C@@H](CN(C)S(=O)(=O)c1ccccc1)NC(=O)N[C@H](C(=O)N1C[C@H]2[C@@H]([C@H]1C(=O)N[C@@H](CC(F)F)C(=O)NCCc1ccc(C(=O)O)cc1)C2(C)C)C(C)(C)C [Example 112],50 nM
13,CC(C)[C@H](NC(=O)N[C@H](C(=O)N1C[C@H]2[C@@H]([C@H]1C(=O)N[C@@H](CC(F)F)C(=O)NCCc1ccc(C(=O)O)cc1)C2(C)C)C(C)(C)C)C(=O)O [Example 113],90 nM
14,CC(C)(C)[C@H](NC(=O)N[C@H](C(=O)N1C[C@H]2[C@@H]([C@H]1C(=O)N[C@@H](CC(F)F)C(=O)NCCc1ccc(C(=O)O)cc1)C2(C)C)C(C)(C)C)C(=O)O [Example 114],90 nM
15,CC(C)[C@@H](CNS(=O)(=O)c1ccccc1)NC(=O)N[C@H](C(=O)N1C[C@H]2[C@@H]([C@H]1C(=O)N[C@@H](CC(F)F)C(=O)NCCc1ccc(C(=O)O)cc1)C2(C)C)C(C)(C)C [Example 115],90 nM
16,COC(=O)c1ccc(CCNC(=O)[C@H](CC(F)F)NC(=O)[C@@H]2[C@@H]3[C@H](CN2C(=O)[C@@H](NC(=O)N[C@H](CN(C)S(=O)(=O)c2ccccc2)C(C)C)C(C)(C)C)C3(C)C)cc1 [Example 116],100 nM

# Same assay, conditions: read-out: Ki Rating; Table 2; single chain NS4A21-32-GSGS-NS3 3-181 protease, 30° C., pH 6.5
row,SMILES,Ki
1,COC(=O)c1ccc(CCNC(=O)[C@H](CC(F)F)NC(=O)[C@@H]2[C@@H]3[C@H](CN2C(=O)[C@@H](NC(=O)N[C@H](C(=O)OC(C)(C)C)C(C)C)C(C)(C)C)C3(C)C)cc1 [Example 137],100 to 500 nM
